One assay has as its system 3T3-L1 adipocytes. Conditions: read-out: IC50 of insulin-induced glucose uptake; cited from earlier work.
Another assay has as its target protein kinase A (PKA) (Homo sapiens, UniProt P17612). Conditions: cited from earlier work.
Assay [1] concerns the target glycogen synthase kinase 3β (Homo sapiens, UniProt P49841). Conditions: 20 μM; cited from earlier work.
Assay [2] addresses T1, BKCa channel α (mSlo) and β1 subunits (Mus musculus, UniProt Q08460).
T1 construct: expressed in transfected cells; host or cells: HEK293
The assay is described as follows: Whole cell recording of HEK cells co-expressing α and β1 subunits. The format is cell-based. Conditions: HEK293 cells expressing both mSlo and β1 subunit. As for the experimental part:
(§1) Current was monitored with a ramp protocol; holding potential −60 mV, with ramp from −80 mV to +150 mV over 500 ms. Extracellular application of NS-1619 (10 μM) increased current as previously described (Olesen, et al., Selective activation of Ca^2+-dependent K^+ channels by novel benzimidazolone. Eur. J. Pharmacol., 1994. 251(1):53-9). […] Analysis was performed using tail analysis with normalization as previously described (Xia, et al., Multiple regulatory sites in large-conductance calcium-activated potassium channels. Nature, 2002. 418(6900):880-4). […] Identification of the BKCa channel was determined by conductance and inhibition by iberiotoxin and TEA. […] Murine femoral arterial rings were isolated and placed in a wire myograph. […] The figures shown are representative of 4 similar experiments. Error bars are standard error of the mean (SEM). Asterisk (*) indicates p<0.001.

In another assay the test system is tracheal rings. Briefly: Isoproterenol-induced relaxation of tracheal rings from PBS- and OVA-sensitized animals. It counts as cell-based, murine. Also noted: isoproterenol-induced relaxation: dose or concentration left out as unconfirmed. On the procedure: The isoproterenol-induced relaxation of tracheal rings from OVA-sensitized asthmatic animals was also tested. After induction of asthma, tracheal rings were removed and mounted on the myograph. […] At the conclusion of the experiment, each tracheal ring was exposed to methacholine to ensure viability of the ring and equivalent constriction.
After induction of asthma, tracheal rings were removed and mounted on the myograph. […] The ISO-relaxation curve was shifted downward and to the right, with the maximal relaxation response reduced to only ˜25% from more than 60%.

Assay [3] has as its system Jurkat T cells and purified human CD4+ T cells. Conditions: cited from earlier work.
For assay [4], the system named is mitochondria in intact cells. Conditions: cited from earlier work.
The test system of a further assay is other PKC isozymes. Conditions: cited from earlier work.
A further assay relates to WT tracheal rings. Briefly: Isoproterenol-induced relaxation of WT tracheal rings on a myograph. It counts as cell-based, murine. Conditions: rottlerin compared to PBS. On the procedure: (n=4 each). Asterisk (*) indicates P<0.05 versus vehicle (DMSO). […] Cumulative dose-response curves of WT tracheal rings to isoproterenol in the absence and presence of 100 nM iberiotoxin (IbTX), a specific BK channel inhibitor. Values in graphs are means±standard deviation.
In this experiment, murine tracheal smooth muscle cells were acutely isolated and whole cell patch clamped as previously described (Zakharov, S. et al., (2005) J Biol Chem 280, 30882-30887).
To dissect which (or both) β-AR pathways are responsible for the effects, tracheal rings were pre-incubated with either β1-AR antagonist (CGP 20712A; 100 nM) or a β2-AR antagonist (ICI 118551; 100 nM) or vehicle (DMSO). […] To confirm that the isoproterenol-induced relaxation was dependent upon BK channel-induced hyperpolarization, IbTX, a specific inhibitor of the BK channel, was used.

Assay [5] concerns the target 3-phosphoinositide-dependent protein kinase-1 (PDK-1) (Homo sapiens, UniProt O15530). Conditions: 20 μM; cited from earlier work.
Assay [6] addresses c-Jun N-terminal kinase 1 α1 (JNK1 α1) (Homo sapiens, UniProt P45983). Conditions: 20 μM; cited from earlier work.
A further assay has as its target T2, BKCa channel (mSlo) (Mus musculus, UniProt Q08460).
T2 construct: expressed in transfected cells
The assay is described as follows: Whole cell patch clamp of HEK293 cells stably transfected with mSlo. The format is cell-based, murine. On the procedure: FIGS. 4A and 4B show representative current traces from whole cell patches with 5 mM EGTA in patch pipette. […] Voltage steps are shown at the right of each tracing; note the different maximum voltage steps +200 mV (upper) vs. +120 mV (lower). […] FIG. 4C G-V curves were constructed for indicated conditions utilizing tail analysis (Xia, et al., Multiple regulatory sites in large-conductance calcium-activated potassium channels. Nature, 2002. 418(6900):880-4). Solid lines were fitted with Boltzmann function. […] FIGS. 4D and 4E show experiments studying stable mslo HEK293 cells in whole cell configuration with a pipette solution containing 5 mM EGTA (˜0 free Ca^2+).
Current in the diary plot in FIG. 5B represents maximal current in ramp protocol at +70 mV. Holding potential of ramp was −20 mV, with ramp from −30 mV to +180 mV over 500 ms. The G-V curve in FIG. 5C was generated from the tail analysis as described in FIG. 4.
as §1, with “ms.” for “ms. Extracellular application of NS-1619 (10 μM) increased current as previously described (Olesen, et al., Selective activation of Ca^2+-dependent K^+ channels by novel benzimidazolone. Eur. J. Pharmacol., 1994. 251(1):53-9).”

For assay [7], the system named is murine femoral arterial rings. The format is cell-based. On the procedure: as §1, with “ms.” for “ms. Extracellular application of NS-1619 (10 μM) increased current as previously described (Olesen, et al., Selective activation of Ca^2+-dependent K^+ channels by novel benzimidazolone. Eur. J. Pharmacol., 1994. 251(1):53-9).”
For a further assay, the target named is casein kinase II (Homo sapiens, UniProt P68400). Conditions: cited from earlier work.

“Also recorded” adds a separate entry of the source.

T2 sequence (Q08460 whole entry): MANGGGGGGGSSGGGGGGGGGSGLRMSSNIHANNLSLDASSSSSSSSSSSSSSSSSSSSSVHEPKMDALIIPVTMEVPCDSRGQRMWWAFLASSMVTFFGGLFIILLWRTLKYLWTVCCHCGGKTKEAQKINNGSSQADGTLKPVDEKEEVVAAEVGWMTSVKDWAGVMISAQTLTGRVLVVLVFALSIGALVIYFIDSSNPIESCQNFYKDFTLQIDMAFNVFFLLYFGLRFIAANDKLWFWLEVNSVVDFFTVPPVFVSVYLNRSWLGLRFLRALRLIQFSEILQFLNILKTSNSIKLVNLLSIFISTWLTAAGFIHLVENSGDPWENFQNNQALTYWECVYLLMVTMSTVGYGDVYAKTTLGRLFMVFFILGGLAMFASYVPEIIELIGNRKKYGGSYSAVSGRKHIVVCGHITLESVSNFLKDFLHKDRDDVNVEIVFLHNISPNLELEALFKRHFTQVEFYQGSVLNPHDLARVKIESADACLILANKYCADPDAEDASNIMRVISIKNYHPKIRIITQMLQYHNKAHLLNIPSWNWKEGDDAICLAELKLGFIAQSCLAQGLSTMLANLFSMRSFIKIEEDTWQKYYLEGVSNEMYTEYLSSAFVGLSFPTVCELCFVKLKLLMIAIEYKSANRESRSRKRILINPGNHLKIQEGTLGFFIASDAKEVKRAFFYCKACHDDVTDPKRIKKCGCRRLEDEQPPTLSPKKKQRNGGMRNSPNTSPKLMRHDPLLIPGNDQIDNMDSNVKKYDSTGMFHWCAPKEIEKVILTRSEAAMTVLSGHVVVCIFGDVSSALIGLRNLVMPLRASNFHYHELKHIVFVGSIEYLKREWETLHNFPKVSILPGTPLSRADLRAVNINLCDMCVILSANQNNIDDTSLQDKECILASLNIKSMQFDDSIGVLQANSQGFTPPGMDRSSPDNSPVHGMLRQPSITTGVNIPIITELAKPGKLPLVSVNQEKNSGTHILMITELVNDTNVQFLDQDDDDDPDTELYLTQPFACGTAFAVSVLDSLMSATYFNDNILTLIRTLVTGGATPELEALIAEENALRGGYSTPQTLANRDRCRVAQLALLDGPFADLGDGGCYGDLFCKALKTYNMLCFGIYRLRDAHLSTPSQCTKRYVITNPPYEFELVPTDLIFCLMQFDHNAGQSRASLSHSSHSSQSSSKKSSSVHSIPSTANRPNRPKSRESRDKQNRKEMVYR
T1 sequence (Q08460 whole entry): as above
glycogen synthase kinase 3β, sequence (P49841 whole entry): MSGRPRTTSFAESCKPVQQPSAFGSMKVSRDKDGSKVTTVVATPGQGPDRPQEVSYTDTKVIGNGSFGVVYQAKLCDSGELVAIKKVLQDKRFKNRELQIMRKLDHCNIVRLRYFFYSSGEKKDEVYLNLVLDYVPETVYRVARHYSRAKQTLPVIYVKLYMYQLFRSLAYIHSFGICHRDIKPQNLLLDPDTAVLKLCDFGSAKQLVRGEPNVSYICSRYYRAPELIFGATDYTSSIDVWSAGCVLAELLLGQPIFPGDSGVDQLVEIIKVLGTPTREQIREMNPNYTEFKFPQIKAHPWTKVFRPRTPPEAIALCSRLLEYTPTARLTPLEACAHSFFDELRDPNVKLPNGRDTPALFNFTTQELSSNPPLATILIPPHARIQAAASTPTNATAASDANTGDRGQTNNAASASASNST
casein kinase II, sequence (P68400 whole entry): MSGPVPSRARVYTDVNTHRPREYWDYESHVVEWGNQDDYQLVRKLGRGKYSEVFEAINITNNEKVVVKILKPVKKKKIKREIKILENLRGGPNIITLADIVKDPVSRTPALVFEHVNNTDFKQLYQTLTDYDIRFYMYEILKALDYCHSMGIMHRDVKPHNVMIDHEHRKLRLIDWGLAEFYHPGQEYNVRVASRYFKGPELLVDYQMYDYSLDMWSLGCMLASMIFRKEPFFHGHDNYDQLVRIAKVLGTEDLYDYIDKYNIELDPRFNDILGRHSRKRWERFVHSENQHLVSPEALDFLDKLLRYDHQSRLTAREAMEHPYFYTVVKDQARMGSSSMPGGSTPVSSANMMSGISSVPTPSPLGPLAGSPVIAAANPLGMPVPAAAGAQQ
c-Jun N-terminal kinase 1 α1 (JNK1 α1), sequence (P45983 1-384 isoform P45983-2, species assumed): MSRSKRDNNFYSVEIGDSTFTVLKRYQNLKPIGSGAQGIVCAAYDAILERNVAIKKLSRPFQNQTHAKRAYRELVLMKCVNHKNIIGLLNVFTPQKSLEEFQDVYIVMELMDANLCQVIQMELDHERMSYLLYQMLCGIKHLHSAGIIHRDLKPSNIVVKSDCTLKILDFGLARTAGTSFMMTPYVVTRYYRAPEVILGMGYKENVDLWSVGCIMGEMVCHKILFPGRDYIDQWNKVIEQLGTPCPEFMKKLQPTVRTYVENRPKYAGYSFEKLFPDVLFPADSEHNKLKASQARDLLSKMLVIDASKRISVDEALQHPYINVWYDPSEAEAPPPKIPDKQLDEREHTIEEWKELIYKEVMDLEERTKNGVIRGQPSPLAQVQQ
3-phosphoinositide-dependent protein kinase-1 (PDK-1), sequence (O15530 whole entry, species assumed): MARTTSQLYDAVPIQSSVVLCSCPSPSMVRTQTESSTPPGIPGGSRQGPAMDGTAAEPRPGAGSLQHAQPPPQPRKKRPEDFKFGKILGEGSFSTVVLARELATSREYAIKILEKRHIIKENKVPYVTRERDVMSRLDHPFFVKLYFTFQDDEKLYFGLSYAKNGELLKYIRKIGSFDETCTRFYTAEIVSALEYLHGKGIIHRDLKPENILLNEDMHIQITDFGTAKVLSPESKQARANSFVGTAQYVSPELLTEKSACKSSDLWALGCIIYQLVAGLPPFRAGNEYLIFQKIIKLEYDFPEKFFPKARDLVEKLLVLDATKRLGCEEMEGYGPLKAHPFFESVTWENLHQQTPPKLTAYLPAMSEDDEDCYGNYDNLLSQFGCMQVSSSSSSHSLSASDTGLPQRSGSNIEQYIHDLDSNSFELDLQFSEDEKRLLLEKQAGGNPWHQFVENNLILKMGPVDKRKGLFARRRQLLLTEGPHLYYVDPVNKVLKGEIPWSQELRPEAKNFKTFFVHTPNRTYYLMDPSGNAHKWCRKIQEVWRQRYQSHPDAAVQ

By IC50 is commonly meant the midpoint of a concentration-inhibition curve. A word on the inhibition: it is the drop in the measured response relative to a control, in per cent. For the molecule `CC(=O)c1c(O)c(C)c(O)c(Cc2c(O)c3c(c(C(=O)/C=C/c4ccccc4)c2O)OC(C)(C)C=C3)c1O` [rottlerin, 5,7-dihydroxy-2,2-dimethyl-6-(2,4,6-trihydroxy-3-methyl-5-acetylbenzyl)-8-cinnamoyl-I,2-chromene], the IC50 was 10 µM in the assay with 3T3-L1 adipocytes, 30 to 100 µM at protein kinase A (PKA), 30 to 100 µM with other PKC isozymes and 30 to 100 µM at casein kinase II. Besides, the results for the inhibition in assay [1], in assay [5] and in [6] were 87%, 64% and 51%, respectively. Moreover, in assay [2], the channel activation result was “activated the channel”. In the assay with tracheal rings (OVA-sensitized rings, acute rottlerin in the bath 2 minutes prior to ISO), the “maximal relaxation response to isoproterenol” value is recorded as around 45%. For the same molecule, in the assay on tracheal rings (PBS-treated (control) animals), the isoproterenol-induced relaxation result is reported as “enhanced the isoproterenol-induced relaxation”. In addition, the “PMA-induced phosphorylation of Erk-1 and Erk-2” value in [3] was “blocked”. Moreover, the mitochondrial uncoupling result in assay [4] (10 μM) was “uncouple mitochondria”. In [4] (PKC independent), the ATP levels entry is on record as “reduce ATP levels”. Moreover, the ISO-induced relaxation result in the assay on WT tracheal rings is “enhanced the ISO-induced relaxation”. Further, at BKCa channel (mSlo) (after exposure to rottlerin), the “tail currents (deactivation)” value is “markedly prolonged”. Also, on BKCa channel (mSlo) (extracellular, non-Ca2+ dependent, reversible), the “concentration at which channel activity was dramatically increased” value is listed as below 100 nM. At BKCa channel (mSlo) (rottlerin 0.5 μM added after NS-1619, 0 Ca2+), the “current after NS-1619 administration” value is listed as “incrementally increased current”. Also, the “effect of intracellular dialysis on channel activity” value at BKCa channel (mSlo) (up to 20 μM in patch pipette, 25 minutes) was “only a relatively small effect; also recorded: minimal effect”. In addition, the “PE induced constriction of the vessel” value in [7] (rottlerin 0.5 μM (FIG. 7D legend)) is listed as “significantly inhibited”. For the same molecule, in assay [7] (rottlerin 1 μM), the “effect on phenylephrine mediated contraction” value is reported as “no significant effect”. Also, the “reduction of phenylephrine mediated contraction” value in assay [7] (rottlerin 4 μM) is “more than 50%”.

These data come from patent publication US20120184517A1, “TREATMENT OF DISEASES WITH ALTERED SMOOTH MUSCLE CONTRACTILITY” (priority 2009, published 2012).
